Where “and” joins values, the source holds several entries; their conditions need not be identical. Equal entries are not always repeated.
Columns and labels:
FIMMI = assay: Example II: in-water applied herbicidal mixtures, transplanted paddy rice, FIMMI; type: in vivo, Fimbristylis miliacea (globe fringerush); conditions: 22 DAA; 10.6 gae/ha
Experimental: The prepared mud was dispensed in 365 mL aliquots into 16-ounce (oz.) non-perforated plastic pots with a surface area of 86.59 square centimeters (cm^2) leaving a headspace of 3 centimeters (cm) in each pot Mud was allowed to dry overnight prior to planting or transplanting. Rice seeds were planted in Sun Gro MetroMix® 306 planting mixture, which typically has a pH of 6.0 to 6.8 and an organic matter content of about 30 percent, in plastic plug trays. Seedlings at the second or third leaf stage of growth were transplanted into 840 mL of mud contained in 32-oz. non-perforated plastic pots with a surface area of 86.59 cm^2 4 days prior to herbicide application. […] Nutrients were added as Osmocote® (19:6:12, N:P:K^+ minor nutrients) at 2 g per 16-oz. pot and 4 g per 32-oz. pot.
Applications were made by injecting with a pipetter appropriate amounts of the application solutions, individually and sequentially, into the aqueous layer of the paddy. Control plants were treated in the same manner with the solvent blank. Applications were made so that all treated plant material received the same concentrations of acetone and crop oil concentrate.

CYPIR = assay: Example II: in-water applied herbicidal mixtures, transplanted paddy rice, CYPIR; type: in vivo, Cyperus iria L. (flatsedge; conditions: 21 DAA
SCPJU = assay: Example II: in-water applied herbicidal mixtures, transplanted paddy rice, SCPJU; type: in vivo, Schoenoplectus juncoides (Japanese bulrush); conditions: for Visual Weed Control (%) - 21 DAA SCPJU Obs / Visual Weed Control (%) - 25 DAA SCPJU Obs: in-water application
Summary of the method: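 Rice transplanted (2nd–3rd leaf) into non-perforated mud pots 4 d pre-application; Osmocote 19:6:12 fertiliser. In-water application: pipette injection into aqueous layer, components individually/sequentially. Solvent blank controls; acetone and crop oil concentrate equalised.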

CYPDI = assay: Example I: postemergence foliar-applied herbicidal mixtures, direct seeded rice, CYPDI; type: in vivo, Cyperus difformis (smallflower umbrella sedge)
Experimental: (§7) The soil matrix was contained in plastic pots with a volume of 1 quart and a surface area of 83.6 square centimeters (cm^2). […] The plants were grown for 8-22 days in a greenhouse with an approximate 14 h photoperiod which was maintained at about 29° C. during the day and 26° C. during the night. Nutrients (Peters Excel® 15-5-15 5-Ca 2-Mg and iron chelate) were applied in the irrigation solution as needed and water was added on a regular basis. Supplemental lighting was provided with overhead metal halide 1000-Watt lamps as necessary. The plants were employed for testing when they reached the first through fourth true leaf stage.
(§8) Treatments consisted of the acid or esters of 4-amino-3-chloro-5-fluoro-6-(4-chloro-2-fluoro-3-methoxy-phenyl)pyridine-2-carboxylic acid (Compound A), each formulated as an SC (suspension concentrate), and various herbicidal components alone and in combination. Forms of compound A were applied on an acid equivalent basis.
(§9) For treatments comprised of formulated compounds, measured amounts of compounds were placed individually in 25 mL glass vials and diluted in a volume of 1.25% (v/v) Agri-Dex® crop oil concentrated to obtain 12× stock solutions. […] Application solutions were prepared by adding an appropriate amount of each stock solution (e.g., 1 mL) and diluted to the appropriate final concentrations with the addition of 10 mL of an aqueous mixture of 1.25% (v/v) crop oil concentrate so that the final spray solutions contained 1.25+/−0.05% (v/v) crop oil concentrate.
(§10) All stock solutions and applications solutions were visually inspected for compound compatibility prior to application. Spray solutions were applied to the plant material with an overhead Mandel track sprayer equipped with a 8002E nozzles calibrated to deliver 187 L/ha over an application area of 0.503 m^2 at a spray height of 18 to 20 inches (46 to 50 cm) above average plant canopy height. Control plants were sprayed in the same manner with the solvent blank.
(§11) The treated plants and control plants were placed in a greenhouse as described above and watered by sub-irrigation to prevent wash-off of the test compounds. After approximately 3 weeks, the condition of the test plants as compared with that of the untreated plants was determined visually and scored on a scale of 0 to 100 percent where 0 corresponds to no injury or growth inhibition and 100 corresponds to complete kill.
(§12) Colby's equation was used to determine the herbicidal effects expected from the mixtures (Colby, S. R. 1967. Calculation of the synergistic and antagonistic response of herbicide combinations. Weeds 15:20-22).
The following equation was used to calculate the expected activity of mixtures containing two active ingredients, A and B: Expected=A+B−(A×B/100) […]

STEME = assay: Example IV: postemergence foliar-applied herbicidal mixtures, cereal crops, STEME; type: in vivo, Stellaria media (common chickweed); conditions: alone, 8.75 gai/ha, 20-22 days
Experimental: (§1) Seeds of the desired test plant species were planted in Sun Gro MetroMix 306 planting mixture, which typically has a pH of 6.0 to 6.8 and an organic matter content of about 30 percent, in plastic pots with a surface area of 103.2 square centimeters (cm^2). […] The plants were grown for 7-36 days in a greenhouse with an approximate 14 hour photoperiod which was maintained at about 18° C. during the day and 17° C. during the night.
(§2) Spray solutions of the second cereal herbicide and experimental compound mixtures were prepared by adding the stock solutions to the appropriate amount of dilution solution to form 12 mL spray solution with active ingredients in two- and three-way combinations.

ELEIN = assay: Example III: postemergence foliar-applied herbicidal mixtures, weeds common to row crops such as corn and soybeans (greenhouse), ELEIN; type: in vivo, Eleusine indica (goosegrass)
Experimental: (§3) The plants were grown for 7-31 days (d) in a greenhouse with an approximate 15 hour (h) photoperiod which was maintained at about 23-29° C. during the day and 22-28° C. during the night.

CENMA = assay: Example V: postemergence herbicidal activity of mixtures in forage crops, CENMA; type: in vivo, Centaurea maculosa (spotted knapweed); conditions: alone, foliar, approximately 21 days
Summary of the method: (§4)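 Plants grown from seed or root cuttings in MetroMix 306 (pH 6.0–6.8) for 14–60 days in greenhouse, ~14 h photoperiod, ~28/24 °C day/night. Foliar spray of two-way mixtures of the second herbicide or experimental compounds applied postemergence.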

AMARE = assay: Example IV: postemergence foliar-applied herbicidal mixtures, weed control in cereal crops in the greenhouse, AMARE; type: in vivo, Amaranthus retroflexus (redroot pigweed); conditions: alone, 8.75 gai/ha, 20-22 days
Summary of the method: (§5)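 Greenhouse plants were grown 7–36 days in potting mix (pH 6.0–6.8) under ~14 h photoperiod at about 18 °C day/17 °C night. Postemergence foliar sprays (12 mL) contained the second cereal herbicide with experimental compound as two- and three-way mixtures.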

SORHA = assay: Example III: postemergence foliar-applied herbicidal mixtures, row crop weeds, SORHA; type: in vivo, Sorghum halepense (johnsongrass); conditions: 13 DAA
Experimental: as §3

SONAR = assay: Example V: postemergence herbicidal activity of mixtures in forage crops, SONAR; type: in vivo, Sonchus arvensis (field sowthistle); conditions: alone, foliar, approximately 21 days
Summary of the method: as §4

SINAR = assay: Example V: postemergence herbicidal activity of mixtures in forage crops, SINAR; type: in vivo, Sinapis arvensis (wild mustard); conditions: alone, foliar, approximately 21 days
Summary of the method: as §4

SOOSS = assay: Example V: postemergence herbicidal activity of mixtures in forage crops, SOOSS; type: in vivo, Solidago L. spec. (goldenrod); conditions: alone, foliar, approximately 21 days
Experimental: as §1, with “Seeds or root cuttings” for “Seeds”, “MetroMix®” for “MetroMix”, “126.6” for “103.2”, “14-60” for “7-36”, “approximately 28°” for “about 18°”, “24°” for “17°”
(§6) Spray solutions of the second herbicide or experimental compound mixtures were prepared by adding the stock solutions to the appropriate amount of dilution solution to form 12 mL spray solution with active ingredients in two-way combinations.

CIRAR = assay: Example IV: postemergence foliar-applied herbicidal mixtures, cereal crops, CIRAR; type: in vivo, Cirsium arvense (Canada thistle); conditions: alone, 8.75 gai/ha, 20-22 days
Experimental: as §1, §2

POLCO = assay: Example IV: postemergence foliar-applied herbicidal mixtures, cereal crops, POLCO; type: in vivo, Polygonum convolvulus (wild buckwheat); conditions: 8.75 gai/ha
Summary of the method: as §5

PANMI = assay: Example III: postemergence foliar-applied herbicidal mixtures, row crop weeds, PANMI; type: in vivo, Panicum miliaceum (wild-proso millet); conditions: 16 DAA
Experimental: as §3

ISCRU = assay: Example I: postemergence foliar-applied herbicidal mixtures, direct seeded rice, ISCRU; type: in vivo, Ischaemum rugosum (saramollagrass)
Experimental: as §7, §8, §9, §10, §11, §12
The following equation was used to calculate the expected activity of mixtures containing two active ingredients, A and B: Expected=A+B−(A×B/100)
A=observed efficacy of active ingredient A at the same concentration as used in the mixture.
B=observed efficacy of active ingredient B at the same concentration as used in the mixture.

BRSNN = assay: Example IV: postemergence foliar-applied herbicidal mixtures, cereal crops, BRSNN; type: in vivo, Brassica napus (volunteer canola); conditions: 8.75 gai/ha
Experimental: as §1, §2

SIDSP = assay: Example V: postemergence herbicidal activity of mixtures in forage crops, SIDSP; type: in vivo, Sida spinosa (prickly sida); conditions: alone, foliar, approximately 21 days
Experimental: as §1, with “Seeds or root cuttings” for “Seeds”, “MetroMix®” for “MetroMix”, “126.6” for “103.2”, “14-60” for “7-36”, “approximately 28°” for “about 18°”, “24°” for “17°”
as §6

VIOTR = assay: Example IV: postemergence foliar-applied herbicidal mixtures, cereal crops, VIOTR; type: in vivo, Viola tricolor (wild pansy); conditions: 8.75 gai/ha
Summary of the method: as §5

CASOB = assay: Example V: postemergence herbicidal activity of mixtures in forage crops (greenhouse), CASOB; type: in vivo, Cassia obtusifolia (sicklepod); conditions: alone, foliar, approximately 21 days
Experimental: as §1, with “Seeds or root cuttings” for “Seeds”, “MetroMix®” for “MetroMix”, “126.6” for “103.2”, “14-60” for “7-36”, “approximately 28°” for “about 18°”, “24°” for “17°”
as §6

For `COc1c(Cl)ccc(-c2nc(C(=O)O)c(Cl)c(N)c2F)c1F` [Compound A Acid, 4-amino-3-chloro-6-(4-chloro-2-fluoro-3-methoxyphenyl)-5-fluoropyridine-2-carboxylic acid], the “Visual Weed Control (%) Obs” value (FIMMI) was 40%, the “Visual Weed Control (%) Obs” value (CYPIR; 8.75 gae/ha) was 0% and the “Visual Weed Control (%) Obs” value (CYPIR; 17.5 gae/ha) was 0%. The “Visual Weed Control (%) Obs” value (CYPIR; 35 gae/ha) was 95%, the “Visual Weed Control (%) - 21 DAA SCPJU Obs” value (SCPJU; 8.75 gae/ha) was 15% and the “Visual Weed Control (%) - 25 DAA SCPJU Obs” value (SCPJU; 8.75 gae/ha) was 65%. For the same compound, the “Visual Weed Control (%) - 21 DAA SCPJU Obs” value (SCPJU; 17.5 gae/ha) was 80%, the “Visual Weed Control (%) - 25 DAA SCPJU Obs” value (SCPJU; 17.5 gae/ha) was 80% and the “Visual Weed Control (%) Obs” value (SCPJU; 22 DAA, 10.6 gae/ha) was 60%. The “Visual Weed Control (%) Obs” value (SCPJU; 25 DAA, 8.75 gae/ha) was 65%, the “Visual Weed Control (%) Obs” value (SCPJU; 25 DAA, 17.5 gae/ha) was 80% and the “Visual Weed Control (%) Obs” value (SCPJU; 25 DAA, 35 gae/ha) was 95%. The “Visual Weed Control (%) - 25 DAA SCPJU Obs” value (SCPJU; 35 gae/ha) was 95%, the “Visual Weed Control (%) - 21 DAA CYPDI Obs” value (CYPDI; 4.38 gae/ha) was 50% and the “Visual Weed Control (%) - 21 DAA CYPDI Obs” value (CYPDI; 8.75 gae/ha) was 85%.

For `COc1c(Cl)ccc(-c2nc(C(=O)OCc3ccccc3)c(Cl)c(N)c2F)c1F` [Compound A Benzyl Ester, benzyl ester of 4-amino-3-chloro-5-fluoro-6-(4-chloro-2-fluoro-3-methoxy-phenyl)pyridine-2-carboxylic acid], the “STEME Ob (observed value)” value (STEME) was 70%, the “Visual Weed Control (%) Obs” value (ELEIN; 14 DAA, 3.75 gae/ha) was 0% and the “Visual Weed Control (%) Obs” value (ELEIN; 17 DAA, 7.5 gae/ha) was 20%. The “CENMA Obs (observed value)” value (CENMA; 4.4 gae/ha) was 70%, the “CENMA Obs (observed value)” value (CENMA; 8.8 gae/ha) was 85% and the “CENMA Obs (observed value)” value (CENMA; 17.5 gae/ha) was 95%. For the same compound, the “AMARE Ob (observed value)” value (AMARE) was 60%, the “Visual Weed Control (%) Obs” value (SORHA; 3.75 gae/ha) was 0% and the “Visual Weed Control (%) Obs” value (SORHA; 7.5 gae/ha) was 0%. The “Visual Weed Control (%) Obs” value (SORHA; 15 gae/ha) was 10%, the “SONAR Obs (observed value)” value (SONAR; 4.4 gae/ha) was 65% and the “SONAR Obs (observed value)” value (SONAR; 8.8 gae/ha) was 100%. The “SONAR Obs (observed value)” value (SONAR; 17.5 gae/ha) was 95%, the “SINAR Obs (observed value)” value (SINAR; 1.1 gae/ha) was 72% and the “SINAR Obs (observed value)” value (SINAR; 2.2 gae/ha) was 98%. For the same compound, the “SINAR Obs (observed value)” value (SINAR; 4.4 gae/ha) was 80% and 100%, the “SINAR Obs (observed value)” value (SINAR; 8.8 gae/ha) was 100% and the “SINAR Obs (observed value)” value (SINAR; 17.5 gae/ha) was 100%. The “SOOSS Obs (observed value)” value (SOOSS; 2.2 gae/ha) was 15%, the “SOOSS Obs (observed value)” value (SOOSS; 17.5 gae/ha) was 100% and the “CIRAR Ob (observed value)” value (CIRAR) was 70%. The “Weed Control Ob” value (POLCO; after 20-22 days) was 50%, the “POLCO Ob (observed value)” value (POLCO; alone, foliar, 20-22 days) was 50% and the “Visual Weed Control (%) Obs” value (PANMI; 3.75 gae/ha) was 15%. For the same compound, the “Visual Weed Control (%) Obs” value (PANMI; 7.5 gae/ha) was 50%, the “Visual Weed Control (%) Obs” value (PANMI; 15 gae/ha) was 75% and the “Visual Weed Control (%) - 21 DAA ISCRU Obs” value (ISCRU; 8 gae/ha) was 20%. The “Visual Weed Control (%) - 21 DAA ISCRU Obs” value (ISCRU; 16 gae/ha) was 0%, the “Weed Control Ob” value (BRSNN; after 20-22 days) was 23% and the “BRSNN Ob (observed value)” value (BRSNN; alone, foliar, 20-22 days) was 23%. For the same compound, the “SIDSP Obs (observed value)” value (SIDSP; 1.1 gae/ha) was 72%, the “SIDSP Obs (observed value)” value (SIDSP; 2.2 gae/ha) was 77% and the “SIDSP Obs (observed value)” value (SIDSP; 4.4 gae/ha) was 85%. For the same compound, the “Weed Control Ob” value (VIOTR; after 20-22 days) was 30%, the “VIOTR Ob (observed value)” value (VIOTR; alone, foliar, 20-22 days) was 30% and the “CASOB Obs (observed value)” value (CASOB; 1.1 gae/ha) was 28%. For the same compound, the “CASOB Obs (observed value)” value (CASOB; 2.2 gae/ha) was 33% and the “CASOB Obs (observed value)” value (CASOB; 4.4 gae/ha) was 38%.
